Experiments:
Experiment in all cases: relative viability (nuclei count vs DMSO), 5 days (fraction); higher = more cells survive
NCI-H1975 = system: NCI-H1975
In short: (§1)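 Cells from lung cancer lines were seeded into 1536-well plates and, one day later, dosed by pin tool. Treatments were either a single drug or a fixed dose of an anchor drug with five library-drug doses (not always all listed) in √10 steps. After 5 days, nuclei were stained in a one-step fixation (final 0.05% Triton X-100, 1% formaldehyde, 1 ug/ml Hoechst) and counted on 4× images, and relative viability is the treated-to-vehicle nuclei ratio, as the median of duplicate plates.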

NCI-H2126 = system: NCI-H2126
In short: as §1

NCI-H2023 = system: NCI-H2023
In short: as §1

LXF-289 = system: LXF-289
In short: as §1

NCI-H1915 = system: NCI-H1915
In short: as §1

NCI-H358 = system: NCI-H358
In short: as §1

HCC-78 = system: HCC-78
In short: as §1

NCI-H322M = system: NCI-H322M
In short: as §1

NCI-H1755 = system: NCI-H1755
In short: as §1

ChaGo-K-1 = system: ChaGo-K-1
In short: as §1

NCI-H1666 = system: NCI-H1666
In short: as §1

Q: Which relative viability (NCI-H1975; first compound 0.005 µM) does the source give for COc1cc2nccc(Oc3ccc(NC(=O)Nc4cc(C)on4)c(Cl)c3)c2cc1OC [Tivozanib] + CC(=O)c1c(C)c2cnc(Nc3ccc(N4CCNCC4)cn3)nc2n(C2CCCC2)c1=O [Palbociclib] (partner 0.5 µM) here?
A: 0.585

Q: What about the relative viability (NCI-H1975; first compound 0.01581 µM) of the same compound?
A: 0.609

Q: What about the relative viability (NCI-H1975; first compound 0.05 µM) of the same compound?
A: 0.648

Q: And the relative viability (NCI-H1975; first compound 0.1581 µM)?
A: 0.341

Q: And the relative viability (NCI-H1975; first compound 0.5 µM)?
A: 0.509

Q: What about the relative viability (NCI-H2126; first compound 0.005 µM) of the same compound?
A: 0.384

Q: What about the relative viability (NCI-H2126; first compound 0.01581 µM) of the same compound?
A: 0.345

Q: What about the relative viability (NCI-H2126; first compound 0.05 µM) of the same compound?
A: 0.352

Q: What about the relative viability (NCI-H2126; first compound 0.1581 µM) of the same compound?
A: 0.337

Q: What about the relative viability (NCI-H2126; first compound 0.5 µM) of the same compound?
A: 0.371

Q: And the relative viability (NCI-H2023; first compound 0.005 µM)?
A: 0.371

Q: And the relative viability (NCI-H2023; first compound 0.01581 µM)?
A: 0.447

Q: And the relative viability (NCI-H2023; first compound 0.05 µM)?
A: 0.384

Q: And the relative viability (NCI-H2023; first compound 0.1581 µM)?
A: 0.395

Q: What about the relative viability (NCI-H2023; first compound 0.5 µM) of the same compound?
A: 0.451

Q: And the relative viability (LXF-289; first compound 0.005 µM)?
A: 0.575

Q: And the relative viability (LXF-289; first compound 0.01581 µM)?
A: 0.576

Q: And the relative viability (LXF-289; first compound 0.05 µM)?
A: 0.6

Q: What about the relative viability (LXF-289; first compound 0.1581 µM) of the same compound?
A: 0.66

Q: And the relative viability (LXF-289; first compound 0.5 µM)?
A: 0.612

Q: And the relative viability (NCI-H1915; first compound 0.005 µM)?
A: 0.537

Q: What about the relative viability (NCI-H1915; first compound 0.01581 µM) of the same compound?
A: 0.553

Q: And the relative viability (NCI-H1915; first compound 0.05 µM)?
A: 0.538

Q: What about the relative viability (NCI-H1915; first compound 0.1581 µM) of the same compound?
A: 0.484

Q: What about the relative viability (NCI-H1915; first compound 0.5 µM) of the same compound?
A: 0.503

Q: And the relative viability (NCI-H358; first compound 0.005 µM)?
A: 0.123

Q: And the relative viability (NCI-H358; first compound 0.01581 µM)?
A: 0.165

Q: And the relative viability (NCI-H358; first compound 0.05 µM)?
A: 0.122

Q: And the relative viability (NCI-H358; first compound 0.1581 µM)?
A: 0.133

Q: What about the relative viability (NCI-H358; first compound 0.5 µM) of the same compound?
A: 0.157

Q: And the relative viability (HCC-78; first compound 0.005 µM)?
A: 0.514

Q: And the relative viability (HCC-78; first compound 0.01581 µM)?
A: 0.438

Q: And the relative viability (HCC-78; first compound 0.05 µM)?
A: 0.474

Q: What about the relative viability (HCC-78; first compound 0.1581 µM) of the same compound?
A: 0.416

Q: And the relative viability (HCC-78; first compound 0.5 µM)?
A: 0.463

Q: What about the relative viability (NCI-H322M; first compound 0.005 µM) of the same compound?
A: 0.467

Q: And the relative viability (NCI-H322M; first compound 0.01581 µM)?
A: 0.478

Q: What about the relative viability (NCI-H322M; first compound 0.05 µM) of the same compound?
A: 0.522

Q: And the relative viability (NCI-H322M; first compound 0.1581 µM)?
A: 0.538

Q: And the relative viability (NCI-H322M; first compound 0.5 µM)?
A: 0.513

Q: What about the relative viability (NCI-H1755; first compound 0.005 µM) of the same compound?
A: 0.437

Q: What about the relative viability (NCI-H1755; first compound 0.01581 µM) of the same compound?
A: 0.467

Q: What about the relative viability (NCI-H1755; first compound 0.05 µM) of the same compound?
A: 0.442

Q: And the relative viability (NCI-H1755; first compound 0.1581 µM)?
A: 0.421

Q: And the relative viability (NCI-H1755; first compound 0.5 µM)?
A: 0.403

Q: And the relative viability (ChaGo-K-1; first compound 0.005 µM)?
A: 0.879

Q: What about the relative viability (ChaGo-K-1; first compound 0.01581 µM) of the same compound?
A: 0.916

Q: And the relative viability (ChaGo-K-1; first compound 0.05 µM)?
A: 0.898

Q: What about the relative viability (ChaGo-K-1; first compound 0.1581 µM) of the same compound?
A: 0.947

Q: What about the relative viability (ChaGo-K-1; first compound 0.5 µM) of the same compound?
A: 0.886

Q: What about the relative viability (NCI-H1666; first compound 0.005 µM) of the same compound?
A: 0.628

Q: And the relative viability (NCI-H1666; first compound 0.01581 µM)?
A: 0.666

Q: What about the relative viability (NCI-H1666; first compound 0.05 µM) of the same compound?
A: 0.639

Q: What about the relative viability (NCI-H1666; first compound 0.1581 µM) of the same compound?
A: 0.668

Q: What about the relative viability (NCI-H1666; first compound 0.5 µM) of the same compound?
A: 0.642

From the supplement of paper PMC10307832
